Results: US8980848B2, “Flavonoid dimers and their use” (The Hong Kong Polytechnic University, priority 2010, dated 2015)

Experiments:
[1] = Tumor cell line cytotoxicity of flavonoid dimers, LCC6MDR; assay type: cell-based, human; settings: human, LCC6MDR cells, IC50 of compound alone
Protocol: (§1) (b) Tumor Cell Line Cytotoxicity. The tumor cytotoxicity assays of flavonoid dimers were performed against LCC6, LCC6MDR and L929 cell lines. […] In brief, LCC6, LCC6MDR and L929 cells were seeded into 96-well flat bottom microtiter plate at 1×10^4 cells per well in a final volume of 100 μL media, respectively. A graded dose of flavonoid dimers was added into wells. The plate was incubated at 37° C. for 72 hrs at the atmosphere 5% CO2 in the air. The % of survivors was determined.

[2] = Tumor cell line cytotoxicity of flavonoid dimers, LCC6; assay type: cell-based, human; settings: human, LCC6 cells, IC50 of compound alone
Protocol: as §1

[3] = Cytotoxicity of flavonoid dimers, L929 mouse fibroblast; assay type: cell-based; settings: mouse, L929 fibroblast cells, IC50 of compound alone, 72 hrs, mouse fibroblast
Protocol: as §1

[4] = tested on: LdAG83 promastigotes (wild type); experiment: In vitro anti-promastigote activity, LdAG83; assay type: cell-based, Leishmania donovani; settings: Leishmania donovani, 72 h, read-out: Anti-promastigotes activity (IC50, μM) LdAG83
Protocol: (§2) Cell Lines and Cell Culture. Promastigotes of Leishmania donovani (wild type LdAG83, pentamidine-resistant LdAG83-PentR50, and SSG-resistant Ld39) and Leishmania major [MHOM/IL/67/JERICHO II (Lm50122), from ATCC] were used in this study.
(§3) In Vitro Anti-Promastigote Activity. The viability of promastigotes was determined by the Cell Titer 96° Aqueous Assay (Promega) that employs a tetrazolium compound (MTS, 2-(4,5-Dimethylthiazol-2-yl-)-5-[3-(carboxymethoxy)phenyl]-2-(4-sulfophenyl)-2H-tetrazolium) and electron coupling reagent, phenazine methosulfate (PMS).^7 Promastigotes were seeded into 96-well flat bottom microtiter plate at 1×10^5 cells per well in a final volume of 100 μL medium and incubated with a series concentration of synthetic flavonoid dimers or known antileishmanials. The parasites were incubated at 27° C. for 72 hrs. Fresh solution of 2 mg/mL MTS and 0.92 mg/mL PMS were prepared in a ratio of 20:1 (MTS:PMS). After 72 hrs incubation, 10 μL of MTS:PMS mixture was added into each well of microtiter plate. The plate was then incubated at 27° C. for 4 hrs for color development. After 4 hrs incubation, the OD values were determined at 490 nm using automatic microtiter plate reader (Bio-Rad).

[5] = tested on: Ld39 promastigotes (SSG-resistant); experiment: In vitro anti-promastigote activity, Ld39; assay type: cell-based, Leishmania donovani; settings: Leishmania donovani, 72 h, read-out: Anti-promastigotes activity (IC50, μM) Ld39
Protocol: as §2, §3

Raw264.7 cells = experiment: Cytotoxicity, mouse macrophage Raw264.7; assay type: cell-based; settings: Mus musculus, RAW264.7, 72 h
Protocol: (a) Mouse Macrophage Raw 264.7 and Primary Mouse PEM Cells. The cytotoxicity assay of reference antileishmanial compounds and the compounds of this invention was performed against mouse macrophage cell line, Raw 264.7 and primary mouse PEM cells in order to calculate the therapeutic index (IC50 value for cytotoxicity of the compounds divided by IC50 value for antileishmanial activity of the compounds). The cells were grown in supplemented DMEM media in an atmosphere of 95% air with 5% CO2 at 37° C. In brief, Raw264.7 cells and PEM cells were seeded into 96-well flat bottom microtiter plate at 1×10^4cells and 2×10^4 cells per well in a final volume of 100 μL media, respectively. A graded dose of flavonoid dimers or antileishmanials was added into wells. The plate was incubated at 37° C. for 72 hrs at the atmosphere 5% CO2 in the air. The % of survivors was determined.

Pgp (LCC6MDR cells) = Pgp (LCC6MDR cells) (Homo sapiens, UniProt P08183); experiment: Cell proliferation assay: Pgp-modulating activity, reversal of anticancer drug resistance in LCC6MDR cells; settings: for RF (Relative Fold), cpd at 0.5 μM: RF = (IC50 without modulator)/(IC50 with 0.5 μM modulator); for RF (Relative Fold), cpd at 0.5 μM / RF (Relative Fold), cpd at 1 μM: paclitaxel; for RF (Relative Fold), cpd at 0.5 μM / EC50 / RF (Relative Fold), cpd at 1 μM: LCC6MDR; for EC50: EC50 of compounds for reversing anticancer drug resistance (nM); for Therapeutic index: IC50 of compounds for L929/EC50 of compounds for lowering paclitaxel drug resistance; for RF (Relative Fold), cpd at 1 μM: RF = (IC50 without modulator)/(IC50 with 1.0 μM modulator)
Chain of Pgp (LCC6MDR cells) (P08183 whole entry): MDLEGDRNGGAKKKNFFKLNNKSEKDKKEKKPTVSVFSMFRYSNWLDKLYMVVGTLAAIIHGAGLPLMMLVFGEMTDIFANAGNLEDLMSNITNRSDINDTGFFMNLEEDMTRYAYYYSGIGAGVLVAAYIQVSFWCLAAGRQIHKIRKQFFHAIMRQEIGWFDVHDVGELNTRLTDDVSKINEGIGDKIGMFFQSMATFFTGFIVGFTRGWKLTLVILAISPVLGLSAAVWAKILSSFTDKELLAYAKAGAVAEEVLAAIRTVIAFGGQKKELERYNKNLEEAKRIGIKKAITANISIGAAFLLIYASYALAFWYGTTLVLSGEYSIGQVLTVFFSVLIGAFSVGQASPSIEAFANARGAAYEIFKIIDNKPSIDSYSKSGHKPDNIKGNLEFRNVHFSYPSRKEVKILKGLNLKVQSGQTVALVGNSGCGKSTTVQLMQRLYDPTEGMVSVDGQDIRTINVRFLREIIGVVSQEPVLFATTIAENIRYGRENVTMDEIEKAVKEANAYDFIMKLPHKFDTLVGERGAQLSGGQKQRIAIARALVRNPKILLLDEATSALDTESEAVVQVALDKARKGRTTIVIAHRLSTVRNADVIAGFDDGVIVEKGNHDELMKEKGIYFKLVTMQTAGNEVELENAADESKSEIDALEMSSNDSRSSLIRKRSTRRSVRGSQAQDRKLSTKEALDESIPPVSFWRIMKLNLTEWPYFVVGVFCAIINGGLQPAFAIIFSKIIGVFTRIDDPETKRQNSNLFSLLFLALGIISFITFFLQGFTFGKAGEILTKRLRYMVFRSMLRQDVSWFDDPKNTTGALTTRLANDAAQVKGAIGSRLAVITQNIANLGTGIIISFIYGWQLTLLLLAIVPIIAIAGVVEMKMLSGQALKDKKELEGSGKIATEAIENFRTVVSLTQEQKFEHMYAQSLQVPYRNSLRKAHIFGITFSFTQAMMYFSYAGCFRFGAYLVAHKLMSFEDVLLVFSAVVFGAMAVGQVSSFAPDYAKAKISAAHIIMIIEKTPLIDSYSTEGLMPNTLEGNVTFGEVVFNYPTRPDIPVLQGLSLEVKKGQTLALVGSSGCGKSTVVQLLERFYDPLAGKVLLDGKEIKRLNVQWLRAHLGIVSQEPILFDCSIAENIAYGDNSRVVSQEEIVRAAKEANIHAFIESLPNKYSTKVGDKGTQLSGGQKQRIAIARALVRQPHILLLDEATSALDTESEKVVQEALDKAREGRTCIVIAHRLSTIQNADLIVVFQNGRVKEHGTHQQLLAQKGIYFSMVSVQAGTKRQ
Protocol: Cell Proliferation Assay. 6,000 cells of LCC6 or LCC6MDR and anticancer drugs (paclitaxel, vinblastine, vincristine, doxorubicin and mitoxantrone) were mixed with or without modulators to a final volume of 200 μL in each well of 96-well plates. […] The plates were then incubated for 5 days at 37° C. […] IC50 values were calculated from the dose-response curves of MTS assays (Prism 4.0).

Row | melting point [°C] | EC50 (Pgp (LCC6MDR cells); Paclitaxel) [nM] | EC50 (Pgp (LCC6MDR cells); Daunorubicin) [nM] | EC50 (Pgp (LCC6MDR cells); Doxorubicin) [nM] | EC50 (Pgp (LCC6MDR cells); Vinblasinte, vinblastine) [nM] | EC50 (Pgp (LCC6MDR cells); Vincristine) [nM] | Structure (SMILES) | IC50 at 72 h [1] [µM] | IC50 at 72 h [2] [µM] | IC50 at 72 h [3] [µM] | IC50 [4] [µM] | IC50 [5] [µM] | IC50 (Raw264.7 cells) [µM] | RF (Relative Fold), cpd at 0.5 μM (Pgp (LCC6MDR cells)) | Therapeutic index (Pgp (LCC6MDR cells)) | RF (Relative Fold), cpd at 1 μM (Pgp (LCC6MDR cells)) | EC50 (Pgp (LCC6MDR cells); Mitoxantrone) [nM]
1 |  |  |  |  |  |  | CS(=O)(=O)N(CCOCCOc1ccc(-c2cc(=O)c3ccccc3o2)cc1)CCOCCOc1ccc(-c2cc(=O)c3ccccc3o2)cc1 [Compound 24, 1,13-Bis[4′-(4H-chromen-4-on-2-yl)phenyl]-N-(methanesulfonyl)-1,4,10,13-tetraoxa-7-azamidecane] | 42.6 ± 5.4 | 27.5 ± 8.4 | 13.4 ± 3.9 | 0.5 | 1.5 | 96 ± 4 | (12.8) |  |  | 
2 | 72 to 74 |  |  |  |  |  | CN(C)c1cccc2c(S(=O)(=O)N(CCOCCOc3ccc(-c4cc(=O)c5ccccc5o4)cc3)CCOCCOc3ccc(-c4cc(=O)c5ccccc5o4)cc3)cccc12 [Compound 25b, 1,13-Bis[4′-(4H-chromen-4-on-2-yl)phenyl]-7-(dansyl)-1,4,10,13-tetraoxa-7-azamidecane] | > 100 | > 100 |  |  |  |  | (1.4) |  |  | 
3 | 119 to 122 | 255 ± 5 |  |  |  |  | O=c1cc(-c2ccc(OCCOCCN(CCOCCOc3ccc(-c4cc(=O)c5ccccc5o4)cc3)Cc3ccc(F)cc3)cc2)oc2ccccc12 [Compound 34, 1,13-Bis[4′-(4H-chromen-4-on-2-yl)phenyl]-7-(4-fluorobenzyl)-1,4,10,13-tetraoxa-7-azamidecane] | > 83 | > 100 | 19.7 |  |  |  | (31.2) | 77.3 |  | 
4 | 96 to 98 |  |  |  |  |  | O=c1cc(-c2ccc(OCCOCCN(CCOCCOc3ccc(-c4cc(=O)c5ccccc5o4)cc3)Cc3ccc(F)c(F)c3)cc2)oc2ccccc12 [Compound 38, 1,13-Bis[4′-(4H-chromen-4-on-2-yl)phenyl]-7-(3,4-difluorobenzyl)-1,4,10,13-tetraoxa-7-azamidecane] | 33.6 ± 4.3 | 32.5 ± 11 | 42.2 ± 2.1 |  |  |  | (49.3) |  |  | 
5 | 69 to 70 | 204 ± 20 |  |  |  |  | O=c1cc(-c2ccc(OCCOCCN(CCOCCOc3ccc(-c4cc(=O)c5ccccc5o4)cc3)Cc3ccc4c(c3)OCO4)cc2)oc2ccccc12 [Compound 42e, 1,13-Bis[4′-(4H-chromen-4-on-2-yl)phenyl]-7-(5-piperonyl)-1,4,10,13-tetraoxa-7-azamidecane] | > 100 | > 100 | > 100 |  |  |  | (31.2) | >490.2 | (117.8) | 
6 | 81 to 82 | 177 ± 14 |  |  |  |  | O=c1cc(-c2ccc(OCCOCCN(CCOCCOc3ccc(-c4cc(=O)c5ccccc5o4)cc3)Cc3ccc(Cl)cc3)cc2)oc2ccccc12 [Compound 49, 1,13-Bis[4′-(4H-chromen-4-on-2-yl)phenyl]-7-(4-chlorobenzyl)-1,4,10,13-tetraoxa-7-azamidecane] | > 100 | > 100 | > 78 |  |  |  | (41.4) | >440.7 | (95.7) | 
7 | 106 to 107 | 72 ± 21 | 76 ± 14 | 94 ± 1 | 38 ± 10 | 83 ± 12 | O=c1cc(-c2ccc(OCCOCCN(CCOCCOc3ccc(-c4cc(=O)c5ccccc5o4)cc3)Cc3ccc(-c4ccccc4)cc3)cc2)oc2ccccc12 [Compound 57, 1,13-Bis[4′-(4H-chromen-4-on-2-yl)phenyl]-7-(4-phenylbenzyl)-1,4,10,13-tetraoxa-7-azamidecane] | > 62 | > 99 | > 69 |  |  |  | (102.1) | >958.3 | (117.8) | 65 ± 19
8 | 96 to 97 |  |  |  |  |  | O=c1cc(-c2ccc(OCCOCCN(CCOCCOc3ccc(-c4cc(=O)c5ccccc5o4)cc3)Cc3cccc4ccccc34)cc2)oc2ccccc12 [Compound 59, 1,13-Bis[4′-(4H-chromen-4-on-2-yl)phenyl]-7-(1-naphthalenylmethyl)-1,4,10,13-tetraoxa-7-azamidecane] | > 100 | > 100 | > 100 |  |  |  | (2.2) |  | (80.6) | 
9 | 71 to 72 |  |  |  |  |  | O=C(c1ccccc1)c1ccc(CN(CCOCCOc2ccc(-c3cc(=O)c4ccccc4o3)cc2)CCOCCOc2ccc(-c3cc(=O)c4ccccc4o3)cc2)cc1 [Compound 61, 1,13-Bis[4′-(4H-chromen-4-on-2-yl)phenyl]-7-(4-benzoylbenzyl)-1,4,10,13-tetraoxa-7-azamidecane] | > 100 | > 91 | > 100 |  |  |  | (1.9) |  | (30.0) | 
10 |  |  |  |  |  |  | O=c1cc(-c2ccc(OCCOCCN(CCOCCOc3ccc(-c4cc(=O)c5ccccc5o4)cc3)Cc3ccncn3)cc2)oc2ccccc12 [Compound 64e, 1,13-Bis[4′-(4H-chromen-4-on-2-yl)phenyl]-7-(4-pyrimidinylmethyl)-1,4,10,13-tetraoxa-7-azamidecane] | > 50 | > 50 | > 50 |  |  |  | (8.3) |  | (61.2) | 
11 |  |  |  |  |  |  | O=c1cc(-c2ccc(OCCOCCN(CCOCCOc3ccc(-c4cc(=O)c5ccccc5o4)cc3)Cc3ccnc4ccccc34)cc2)oc2ccccc12 [Compound 64f, 1,13-Bis[4′-(4H-chromen-4-on-2-yl)phenyl]-7-(4-quinolinylmethyl)-1,4,10,13-tetraoxa-7-azamidecane] | > 100 | > 100 | > 100 |  |  |  | (15.9) |  | (69.6) | 
12 |  |  |  |  |  |  | O=c1cc(-c2ccc(OCCOCCN(CCOCCOc3ccc(-c4cc(=O)c5ccccc5o4)cc3)Cc3ccc4ccccc4n3)cc2)oc2ccccc12 [Compound 64g, 1,13-Bis[4′-(4H-chromen-4-on-2-yl)phenyl]-7-(2-quinolinylmethyl)-1,4,10,13-tetraoxa-7-azamidecane] | > 100 | > 100 | 8.5 ± 2.3 |  |  |  | (66.6) |  | (102.1) | 
13 |  |  |  |  |  |  | O=c1cc(-c2ccc(OCCOCCN(CCOCCOc3ccc(-c4cc(=O)c5ccccc5o4)cc3)c3ccccc3)cc2)oc2ccccc12 [Compound 64h, 1,13-Bis[4′-(4H-chromen-4-on-2-yl)phenyl]-7-(phenyl)-1,4,10,13-tetraoxa-7-azamidecane] | > 100 | > 100 | > 100 |  |  |  | (11.6) |  | (72.9) | 

Row | Structure (SMILES) | melting point [°C] | EC50 (Pgp (LCC6MDR cells); Paclitaxel) [nM] | EC50 (Pgp (LCC6MDR cells); Daunorubicin) [nM] | EC50 (Pgp (LCC6MDR cells); Doxorubicin) [nM] | EC50 (Pgp (LCC6MDR cells); Vinblasinte, vinblastine) [nM] | EC50 (Pgp (LCC6MDR cells); Vincristine) [nM] | IC50 at 72 h [1] [µM] | IC50 at 72 h [2] [µM] | IC50 at 72 h [3] [µM] | IC50 [4] [µM] | IC50 [5] [µM] | IC50 (Raw264.7 cells) [µM] | RF (Relative Fold), cpd at 0.5 μM (Pgp (LCC6MDR cells)) | Therapeutic index (Pgp (LCC6MDR cells)) | RF (Relative Fold), cpd at 1 μM (Pgp (LCC6MDR cells)) | EC50 (Pgp (LCC6MDR cells); Mitoxantrone) [nM]
14 | O=c1cc(-c2ccc(OCCOCCN(CCCc3ccccc3)CCOCCOc3ccc(-c4cc(=O)c5ccccc5o4)cc3)cc2)oc2ccccc12 [Compound 26, 1,13-Bis[4′-(4H-chromen-4-on-2-yl)phenyl]-N-(3-phenylpropyl)-1,4,10,13-tetraoxa-7-azamidecane] |  | 250 |  |  |  |  | > 100 | > 100 | 9.5 | 8.9 | 18.4 | 85 | (12.5) | 38.0 |  | 
